Measured values from US12731806B2, “Electrolyte regeneration for organic redox flow batteries based on water-soluble phenazine-based compounds” (CMBLU Energy AG, priority 2020, dated 2026).
Values after ≈ are worked out from the molar mass of the structure shown.

Columns and labels:
physchem = details: aqueous buffer
[1] = Solubility of DHPS and its degradation species

Row | solubility (physchem) | SMILES | solubility in a DHPS solution ([1]; DHPS solution up to 0.5 M) | solubility ([1]; aqueous buffer)
1 | 1400 to 1600 mM (≈ 409 to 468 mg/mL) | O=S(=O)(O)c1ccc2nc3cc(O)c(O)cc3nc2c1 [DHPS, 7,8-Dihydroxyphenazinesulfonic acid] | – | –
2 | 200 to 400 mM (≈ 42.4 to 84.9 mg/mL) | Oc1cc2nc3ccccc3nc2cc1O [DHP, Dihydroxyphenazine] | – | –
3 | – | Oc1ccc2nc3ccccc3nc2c1 [MHP, Monohydroxyphenazine] | does not change significantly | 100 to 300 mM (≈ 19.6 to 58.9 mg/mL)
